Test results from patent publication US20230092895A1, “TANDEM CD19 CAR-BASED COMPOSITIONS AND METHODS FOR IMMUNOTHERAPY” (Obsidian Therapeutics, Inc., priority 2019, published 2023).
Where two headings read alike, the source gives them in different places.

Assays:
HCT-116 cells = conditions: 24 hours; for IL15Ra mean fluorescent intensity (MFI): HCT-116 cells stably expressing OT-001111
Experimental: HCT-116 cells stably expressing the OT-001111 (OT-IL15-009) cassette were incubated with 0 to 250 μM TMP ligand (or DMSO) for 24 hours. Membrane bound IL15-IL15Ra levels were assessed using flow cytometry detection of IL15Ra.

[1] = human, cited from earlier work
[2] = tested on: GFP positive (IL12 negative) T cells; experiment: In vivo T cell phenotype: GFP positive cells co-transferred with CD19 CAR-IL12 cells, FACS markers, plasma IL12; set-up: species or system NSG mice
Experimental: IL12-transduced T cells have a Th1-skewed phenotype in vitro, i.e. produce IFN gamma). To assess phenotypic effects of IL12 in vivo, GFP positive (IL12 negative) cells were generated and co-transferred with CD19 CAR-IL12 transduced cells or CD19 alone or IL12 alone cells. Nalm 6 tumor bearing NSG mice were injected with 8 million GFP positive cells, in addition to CD19 CAR-IL12 cells or their corresponding monocistronic constructs. The groups utilized in this study included, 1e^6 empty vector expressing T cells plus 8e^6 GFP positive cells, 1e^6 OT-001407 plus 8e^6 GFP positive cells, 0.1 e^6 OT-001356 plus 8e^6 GFP positive cells, 1e^6 OT-001356 plus 8e^6 GFP positive cells, 0.1e^6 OT-001357 plus 8e^6 GFP positive cells, 1e^6 OT-001357 plus 8e^6 GFP positive cells, and 1e^6 OT-001442 plus 8e^6 GFP positive cells.
Animals were bled on day 3, day 5, day 7 and euthanized at day 12. Blood, spleen, and bone marrow were collected for analysis of T cell number and CD8 frequency. Phenotypic T cell markers such as Granzyme, Tbet, pSTAT4, CD25, and ICOS were analyzed in the GFP positive cells using FACS. […] By day 12, post transfer, the levels of Granzyme B, Tbet, pSTAT4, CD25 and ICOS levels increased in the blood of the mice injected with the CD19 CAR-IL12 tandem constructs. ANOVA test for significance was p<0.0001 for all markers. […]

With `COc1cc(Cc2cnc(N)nc2N)cc(OC)c1OC` [TMP, Trimethoprim] as the compound, how does the “TMP concentration resulting in IL15Ra MFI levels above DMSO controls” value (HCT-116 cells; HCT-116 stably expressing OT-001111) read?
The value was 0.0032 µM.

And the “IL15Ra mean fluorescent intensity (MFI)” value (HCT-116 cells; TMP 0.00064 μM)?
Its value is 304.

What about the “IL15Ra mean fluorescent intensity (MFI)” value (HCT-116 cells; TMP 0.0032 μM) of the same compound?
Its value is 469.

What about the “IL15Ra mean fluorescent intensity (MFI)” value (HCT-116 cells; TMP 0.016 μM) of the same compound?
The value was 666.

And the “IL15Ra mean fluorescent intensity (MFI)” value (HCT-116 cells; TMP 0.08 μM)?
The value was 769.

And the “IL15Ra mean fluorescent intensity (MFI)” value (HCT-116 cells; TMP 0.4 μM)?
Its value is 1001.

What about the “IL15Ra mean fluorescent intensity (MFI)” value (HCT-116 cells; TMP 2 μM) of the same compound?
The value was 1104.

And the “IL15Ra mean fluorescent intensity (MFI)” value (HCT-116 cells; TMP 10 μM)?
The value was 1204.

And the “IL15Ra mean fluorescent intensity (MFI)” value (HCT-116 cells; TMP 50 μM)?
Its value is 1344.

And the “IL15Ra mean fluorescent intensity (MFI)” value (HCT-116 cells; TMP 250 μM)?
The value was 1576.

And the “TMP maximum peak levels” value ([1]; 150 mg/m2 IV every 8 hours)?
The value was 17 to 34 µM.

What about the “TMP steady state levels” value ([1]; 80-160 mg BID PO) of the same compound?
The value was 1 to 6 µM.

With “IL12: heterodimeric protein of two subunits (p35, p40); cytokine” as the compound, how does the “EC 50 of IL12 in plasma” value ([2]; mouse, in vivo) read?
The value was about 0.1 ng/mL.

And the “level of IL12 sufficient to induce phenotypic changes” value ([2]; plasma, markers and IFN gamma)?
Its value is 200 pg/mL.
